The target of data set [1] is T1, cloned human 5-HT1A receptors (Homo sapiens, UniProt P08908).
T1 construct: expressed in transfected cells
T1 sequence (P08908 1-422): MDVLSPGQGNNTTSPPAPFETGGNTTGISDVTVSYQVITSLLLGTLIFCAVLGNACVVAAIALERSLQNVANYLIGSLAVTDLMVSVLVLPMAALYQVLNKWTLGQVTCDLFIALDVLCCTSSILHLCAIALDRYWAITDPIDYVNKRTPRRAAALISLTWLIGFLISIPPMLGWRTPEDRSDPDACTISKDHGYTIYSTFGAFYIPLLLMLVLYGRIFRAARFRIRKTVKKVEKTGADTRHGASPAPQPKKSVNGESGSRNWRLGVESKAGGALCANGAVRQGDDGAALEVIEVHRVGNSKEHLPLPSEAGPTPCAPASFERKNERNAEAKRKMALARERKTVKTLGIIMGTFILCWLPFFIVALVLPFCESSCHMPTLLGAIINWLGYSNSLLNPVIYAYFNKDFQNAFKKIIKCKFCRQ
In words: 35S-GTPγS binding assay, antagonist activity versus 8-OH-DPAT. The settings on record: reversal of 8-OH-DPAT effect on 35S-GTPγS binding; for IC50: read-out: 5-HT1A Function IC50. The data set is classed as biochemical. On the procedure:
Antagonist activity at 5-HT1A receptors was established by using a ^35S-GTPγS binding assay similar to that used by Lazareno and Birdsall (Br. J. Pharmacol. 109: 1120, 1993), in which the test compound's ability to affect the binding of ^35S-GTPγS to membranes containing cloned human 5-HT1A receptors was determined. Agonists produce an increase in binding whereas antagonists produce no increase but rather reverse the effects of the standard agonist 8-OH-DPAT. The test compound's maximum inhibitory effect is represented as the Imax, while its potency is defined by the IC50.
For orientation: GTPγS is a poorly hydrolysed GTP analogue; its binding reports G protein activation.

The target in data set [2] is T2, human 5-HT1A receptors (Homo sapiens, UniProt P08908).
T2 construct: expressed in transfected cells; host or cells: CHO cells
T2 sequence (P08908 1-422): T1 sequence (P08908 1-422)
In words: [3H] 8-OH-DPAT displacement from 5-HT1A receptor (CHO cells). The class given is binding. The settings on record: displacement of [3H] 8-OH-DPAT, CHO cells stably transfected with human 5-HT1A; read-out: 5-HT1A Receptor Affinity KI. The source says:
High affinity for the serotonin 5-HT1A receptor was established by testing the claimed compound's ability to displace [^3H] 8-OH-DPAT (dipropylaminotetralin) from the 5-HT1A serotonin receptor following a modification of the procedure of Hall et al., J. Neurochem. 44, 1685 (1985) which utilizes CHO cells stably transfected with human 5-HT1A receptors.
(Loss of bound radioactivity is the signal in a displacement assay; it reports binding, not function.)

We go through three molecules from patent publication US7381723B2, “Azabicyclylmethyl derivatives of 7,8-dihydro-1,6,9,-trioxa-3-aza-cyclopenta[a]naphthalene as 5-HT1A antagonists” (Wyeth, priority 2001, dated 2008).

In general, melting point refers to the temperature of the solid-liquid transition. As a reminder, the IC50 is the concentration that inhibits the measured activity by half. As a reminder, the Ki is the equilibrium dissociation constant of an inhibitor or competing ligand from its target.

`Cc1nc2ccc3c(c2o1)OC(CN1C2CCC1CC(O)(c1ccccc1)C2)CO3` (stereo not drawn) [Example 1, 8-{[2-Methyl-7,8-dihydro[1,4]dioxino[2,3-g][1,3]benzoxazol-8-yl]methyl}-3-phenyl-8-azabicyclo[3.2.1]octan-3-ol]: the melting point fell in the range of 203 to 205 °C. For the same molecule, in data set [1], the “5-HT1A Function Imax (maximum inhibitory effect)” value is 76% and the IC50 turned out to be 53 nM. Moreover, the Ki in data set [2] is 0.54 nM.

Molecule `Cc1nc2ccc3c(c2o1)OC(CN1C2CCC1CC(O)(c1cccc(C(F)(F)F)c1)C2)CO3` (stereo not drawn) [Example 2, 8-{[2-Methyl-7,8-dihydro[1,4]dioxino[2,3-g][1,3]benzoxazol-8-yl]methyl}-3-[3-(trifluoromethyl)phenyl]-8-azabicyclo[3.2.1]octan-3-ol] came in with a melting point of 148 to 150 °C. Besides, the Ki in data set [2] amounted to 0.77 nM.

Take `Cc1nc2ccc3c(c2o1)OC(CN1C2CCC1CC(O)(c1ccc4ccccc4c1)C2)CO3` (stereo not drawn) [Example 3, 8-{[2-Methyl-7,8-dihydro[1,4]dioxino[2,3-g][1,3]benzoxazol-8-yl]methyl}-3-(2-naphthyl)-8-azabicyclo[3.2.1]octan-3-ol]: in data set [1], the “5-HT1A Function Imax (maximum inhibitory effect)” value was 95% and the IC50 stood at 27 nM. In data set [2], the Ki turned out to be 3.71 nM.
